The text below walks through data of DBAASP.

Values after ≈ are worked out from the molar mass of the structure shown.

Common to all, as to assay: ≥ marks a high value that may be exact or a test limit, other limits are often not marked, values filed in µg/mL are converted to µM
Assay [1] deals with Escherichia coli ATCC 25726.
For assay [2], the system named is Staphylococcus aureus ATCC 25923.
Assay [3] relates to Batrachochytrium dendrobatidis JEL-197.
In assay [4] the test system is Candida albicans ATCC 90028.
The subject of assay [5] is Staphylococcus aureus CUN 3792-99.
In assay [6] the test system is Acinetobacter baumannii ATCC 19606.
Assay [7] relates to Pseudomonas aeruginosa CUN 4158-02.
Assay [8] has as its system Bordetella bronchiseptica CUN 11844-99.
Assay [9] deals with Staphylococcus aureus ATCC 43300.
In assay [10] the test system is Escherichia coli ATCC 25922.
Assay [11] relates to Pseudomonas aeruginosa ATCC 27853.
Assay [12] concerns Stenotrophomonas maltophilia CUN 3998-00.
Assay [13] relates to Pseudomonas aeruginosa 77733.
Assay [14] deals with Pseudomonas aeruginosa 87104.
The subject of assay [15] is Pseudomonas aeruginosa 77905.
Assay [16] deals with Enterobacter cloacae NHTCC 53001.
In assay [17] the test system is Staphylococcus aureus NCTC 8325.
For assay [18], the system named is Pseudomonas aeruginosa 78905.
The subject of assay [19] is Pseudomonas aeruginosa 78888.
For assay [20], the system named is Klebsiella pneumoniae KK3 9904.
In assay [21] the test system is Pseudomonas aeruginosa 78078.
For assay [22], the system named is Pseudomonas aeruginosa 78073.
The subject of assay [23] is Pseudomonas aeruginosa 78887.
In assay [24] the test system is Pseudomonas aeruginosa 77319.
Assay [25] relates to Pseudomonas aeruginosa 78327.
For assay [26], the system named is Micrococcus luteus ATCC 10240.
Assay [27] relates to Salmonella enterica subsp. enterica serovar Typhimurium ATCC 14028.
Assay [28] has as its system Shigella dysenteriae ATCC 9752.
Assay [29] concerns Staphylococcus epidermidis ATCC 12228.
For assay [30], the system named is Staphylococcus aureus ATCC 6538P.
Assay [31] concerns Bacillus subtilis ATCC 6633.
For assay [32], the system named is Staphylococcus aureus TK784.
Assay [33] relates to Klebsiella pneumoniae ATCC 10031.
For assay [34], the system named is Bacillus licheniformis X39.
For assay [35], the system named is Candida albicans ATCC 2002.
Assay [36] has as its system Staphylococcus carnosus KHS.
The subject of assay [37] is Rhodococcus rhodochrous X15.
The subject of assay [38] is Psychrobacter faecalis X29.

Broadly, the MIC is the smallest concentration in the dilution series that meets the test's criterion for growth inhibition. For `CC[C@H](C)[C@H](NC(=O)[C@H](CO)NC(=O)[C@@H]1CCCN1C(=O)[C@@H](NC(=O)[C@H](CC(C)C)NC(=O)CNC(=O)[C@@H](NC(=O)[C@H](CC(C)C)NC(=O)[C@@H](NC(=O)[C@@H]1CCCN1C(=O)[C@H](CC(C)C)NC(=O)[C@@H](N)Cc1ccccc1)C(C)C)[C@@H](C)O)[C@@H](C)O)C(=O)N[C@H](C(=O)N1CCC[C@H]1C(=O)N[C@@H](CCCCN)C(=O)N[C@@H](CC(C)C)C(=O)N[C@H](C(=O)N[C@H]1CSSC[C@@H](C(=O)O)NC(=O)[C@H](CCCCN)NC(=O)[C@H](CCCCN)NC(=O)[C@H]([C@@H](C)O)NC(=O)[C@H](CC(C)C)NC(=O)[C@H](CC(C)C)NC1=O)C(C)C)C(C)C` [FLPVLTGLTPSIVPKLVCLLTKKC], the MIC was not below 100 µM in assay [1], 50 µM (≈ 129 µg/mL) in [2], not below 50 µM in [3] and not below 100 µM in assay [4].
As for `CC(C)C[C@H](NC(=O)[C@H](CCCN=C(N)N)NC(=O)[C@H](CCCN=C(N)N)NC(=O)[C@H](Cc1ccccc1)NC(=O)[C@H](CCCCN)NC(=O)[C@H](CCCCN)NC(=O)[C@H](CS)NC(=O)CN)C(=O)N[C@@H](CCCCN)C(=O)N[C@@H](Cc1c[nH]c2ccccc12)C(=O)N[C@@H](CCCCN)C(=O)N[C@@H](Cc1ccc(O)cc1)C(=O)N[C@@H](CCCCN)C(=O)NCC(=O)N[C@@H](CCCCN)C(=O)N[C@@H](Cc1ccccc1)C(=O)N[C@@H](Cc1c[nH]c2ccccc12)C(=O)N[C@@H](Cc1ccccc1)C(=O)N[C@@H](Cc1c[nH]c2ccccc12)C(=O)N[C@@H](CS)C(=O)NCC(N)=O` [GCKKFRRLKWKYKGKFWFWCG], the MIC is not below 372 µM in [5]; 23.2 µM (≈ 64 µg/mL) in assay [6]; not below 93 µM in assay [7]; 1.45 µM (≈ 4 µg/mL) in assay [8]; 11.6 µM (≈ 32 µg/mL) in assay [2]; 23.2 µM (≈ 64 µg/mL) in assay [9]. In addition, the minimum inhibitory concentration (MIC) in assay [10] was 23.2 µM (≈ 64 µg/mL); in [11] it was 93 µM (≈ 256 µg/mL); in assay [12], not below 186 µM.
With `CC[C@H](C)[C@H](NC(=O)[C@H](Cc1cnc[nH]1)NC(=O)[C@H](CCCCN)NC(=O)CNC(=O)[C@H](C)NC(=O)[C@@H](NC(=O)[C@H](CCCCN)NC(=O)[C@H](CC(C)C)NC(=O)[C@@H](NC(=O)CNC(=O)[C@H](CCCCN)NC(=O)[C@H](Cc1ccccc1)NC(=O)[C@H](CC(C)C)NC(=O)[C@H](CO)NC(=O)[C@H](CCSC)NC(=O)[C@H](CC(C)C)NC(=O)CN)C(C)C)[C@@H](C)O)C(=O)N[C@@H](Cc1ccccc1)C(=O)N[C@@H](CCCCN)C(=O)N[C@@H](CC(N)=O)C(=O)N[C@H](C(=O)NCC(=O)NCC(=O)N[C@@H](CO)C(=O)N[C@@H](CC(C)C)C(=O)N[C@@H](CC(C)C)C(=O)N[C@@H](CC(=O)O)C(=O)N[C@@H](CCC(N)=O)C(=O)N[C@@H](C)C(=O)N[C@@H](CCCCN)C(=O)N[C@H]1CSSC[C@@H](C(=O)O)NC(=O)[C@H](CCC(=O)O)NC(=O)CNC(=O)[C@H]([C@@H](C)O)NC(=O)[C@H]([C@@H](C)CC)NC(=O)[C@H](CCCCN)NC1=O)C(C)C` [GLMSLFKGVLKTAGKHIFKNVGGSLLDQAKCKITGEC], the minimum inhibitory concentration (MIC) is 12 µM (≈ 46.7 µg/mL) in assay [13]; 6 µM (≈ 23.4 µg/mL) in assay [14]; 6 µM (≈ 23.4 µg/mL) in assay [15]; 6 µM (≈ 23.4 µg/mL) in assay [16]; 25 µM (≈ 97.3 µg/mL) in assay [17]; 12 µM (≈ 46.7 µg/mL) in [18]. Besides, the minimal inhibitory concentration (MIC) worked out at 12 µM (≈ 46.7 µg/mL) in assay [19]; 6 µM (≈ 23.4 µg/mL) in assay [20]; 12 µM (≈ 46.7 µg/mL) in [21]; 6 µM (≈ 23.4 µg/mL) in [22]; 6 µM (≈ 23.4 µg/mL) in assay [23]; 12 µM (≈ 46.7 µg/mL) in assay [24]. Besides, the MIC in assay [10] is 6 µM (≈ 23.4 µg/mL); in [4], not below 100 µM; in assay [25], 6 µM (≈ 23.4 µg/mL); in [11] it was 3 µM (≈ 11.7 µg/mL).
For `CC(C)C[C@H](NC(=O)[C@H](CCCCN)NC(=O)[C@H](CCCCN)NC(=O)[C@H](CC(C)C)NC(=O)[C@H](CC(C)C)NC(=O)[C@H](CCCCN)NC(=O)[C@H](CCCCN)NC(=O)[C@H](CC(C)C)NC(=O)[C@H](Cc1c[nH]c2ccccc12)NC(=O)[C@H](CCCCN)NC(=O)[C@@H](N)CC(C)C)C(N)=O` [LKWLKKLLKKL], the MIC in [26] worked out at 2.84 µM (≈ 4 µg/mL); in assay [27] it was 2.84 µM (≈ 4 µg/mL); in assay [28], 1.42 µM (≈ 2 µg/mL); in [29], 2.84 µM (≈ 4 µg/mL); in assay [30], 1.42 µM (≈ 2 µg/mL); in assay [31] it was 1.42 µM (≈ 2 µg/mL). For the same compound, the minimal inhibitory concentration (MIC) in assay [32] amounted to 5.67 µM (≈ 7.99 µg/mL); in assay [10] it was 2.84 µM (≈ 4 µg/mL); in [11], 5.67 µM (≈ 7.99 µg/mL); in assay [33], 1.42 µM (≈ 2 µg/mL).
Regarding `CC[C@H](C)[C@H](NC(=O)[C@H](CCCCN)NC(=O)[C@H](CCCCN)NC(=O)[C@H](C)NC(=O)[C@H](CC(C)C)NC(=O)[C@H](CC(N)=O)NC(=O)[C@@H](NC(=O)[C@@H](NC(=O)[C@@H](NC(=O)[C@H](CC(N)=O)NC(=O)[C@H](CC(C)C)NC(=O)[C@@H](NC(=O)[C@@H](N)CC(N)=O)[C@@H](C)CC)[C@@H](C)O)[C@@H](C)CC)[C@@H](C)CC)C(=O)N[C@@H](CC(C)C)C(N)=O` [NILNTIINLAKKIL], the minimal inhibitory concentration (MIC) was 19 µM (≈ 30 µg/mL) in assay [34]; 9.5 µM (≈ 15 µg/mL) in assay [35]; 19 µM (≈ 30 µg/mL) in assay [36]; 2.4 µM (≈ 3.79 µg/mL) in [37]; 4.8 µM (≈ 7.58 µg/mL) in [2]; not below 37.5 µM in [38].
